Data published in ChEMBL document CHEMBL3045111, “Synthesis and herbicidal activities of novel 3-(substituted benzyloxy or phenoxy)-6-methyl-4-(3-trifluoromethylphenyl)pyridazine derivatives” (2012).
Active and inactive are the calls of the source. The calls are words filed in the database; no cut-off is given here.

Experiments:
[1] = tested on: Brassica rapa subsp. oleifera; experiment: Post-emergence herbicidal activity against one-leaf stage Brassica rapa subsp. oleifera under greenhouse condition at 150 g /ha measured after 24 days by spray method; format: functional; details: 576 h, read-out: GI
[2] = tested on: Brassica rapa subsp. oleifera; experiment: Post-emergence herbicidal activity against one-leaf stage Brassica rapa subsp. oleifera under greenhouse condition assessed as complete bleaching of leaves at 75 g /ha measured after 24 days by spray method; format: functional, organism-based
Amaranthus retroflexus [3] = experiment: Post-emergence herbicidal activity against one-leaf stage Amaranthus retroflexus under greenhouse condition at 300 g /ha measured after 24 days by spray method; format: functional; details: 576 h, read-out: GI
Amaranthus retroflexus [4] = experiment: Post-emergence herbicidal activity against one-leaf stage Amaranthus retroflexus under greenhouse condition at 30 g /ha measured after 24 days by spray method; format: functional; details: 576 h, read-out: GI
[5] = tested on: Brassica rapa subsp. oleifera; experiment: Post-emergence herbicidal activity against one-leaf stage Brassica rapa subsp. oleifera under greenhouse condition at 60 g /ha measured after 24 days by spray method; format: functional; details: 576 h, read-out: GI
[6] = tested on: Brassica rapa subsp. oleifera; experiment: Post-emergence herbicidal activity against one-leaf stage Brassica rapa subsp. oleifera under greenhouse condition assessed as complete bleaching of leaves at 60 g /ha measured after 24 days by spray method; format: functional, organism-based
[7] = tested on: Brassica rapa subsp. oleifera; experiment: Post-emergence herbicidal activity against one-leaf stage Brassica rapa subsp. oleifera under greenhouse condition assessed as complete bleaching of leaves at 15 g /ha measured after 24 days by spray method; format: functional, organism-based
[8] = tested on: Brassica rapa subsp. oleifera; experiment: Post-emergence herbicidal activity against one-leaf stage Brassica rapa subsp. oleifera under greenhouse condition assessed as complete bleaching of leaves at 7.5 g /ha measured after 24 days by spray method; format: functional, organism-based
Echinochloa crus-galli [9] = experiment: Pre-emergence herbicidal activity against Echinochloa crus-galli (barnyard grass) under greenhouse condition at 750 g /ha measured after 24 days by spray method; format: functional; details: 576 h, read-out: GI
[10] = tested on: Brassica rapa subsp. oleifera; experiment: Post-emergence herbicidal activity against one-leaf stage Brassica rapa subsp. oleifera under greenhouse condition at 7.5 g /ha measured after 24 days by spray method; format: functional; details: 576 h, read-out: GI
Echinochloa crus-galli [11] = experiment: Post-emergence herbicidal activity against one-leaf stage of Echinochloa crus-galli (barnyard grass) under greenhouse condition at 750 g /ha measured after 24 days by spray method; format: functional; details: 576 h, read-out: GI
Amaranthus retroflexus [12] = experiment: Pre-emergence herbicidal activity against Amaranthus retroflexus under greenhouse condition at 750 g /ha measured after 24 days by spray method; format: functional; details: 576 h, read-out: GI
Amaranthus retroflexus [13] = experiment: Post-emergence herbicidal activity against one-leaf stage Amaranthus retroflexus under greenhouse condition at 15 g /ha measured after 24 days by spray method; format: functional; details: 576 h, read-out: GI
Spirodela polyrhiza [14] = experiment: Bleaching herbicidal activity in Spirodela polyrhiza fronds cultured in compound-containing in medium assessed as chlorophyll inhibition at 10 ug/ml after 7 days; format: functional; details: 168 h
Amaranthus retroflexus [15] = experiment: Post-emergence herbicidal activity against one-leaf stage Amaranthus retroflexus under greenhouse condition assessed as complete bleaching of leaves at 15 g /ha measured after 24 days by spray method; format: functional, organism-based
Amaranthus retroflexus [16] = experiment: Post-emergence herbicidal activity against one-leaf stage Amaranthus retroflexus under greenhouse condition assessed as complete bleaching of leaves at 7.5 g /ha measured after 24 days by spray method; format: functional, organism-based
Amaranthus retroflexus [17] = experiment: Post-emergence herbicidal activity against one-leaf stage Amaranthus retroflexus under greenhouse condition at 7.5 g /ha measured after 24 days by spray method; format: functional; details: 576 h, read-out: GI
[18] = tested on: Brassica rapa subsp. oleifera; experiment: Post-emergence herbicidal activity against one-leaf stage Brassica rapa subsp. oleifera under greenhouse condition assessed as complete bleaching of leaves at 30 g /ha measured after 24 days by spray method; format: functional, organism-based
Amaranthus retroflexus [19] = experiment: Post-emergence herbicidal activity against one-leaf stage Amaranthus retroflexus under greenhouse condition at 600 g /ha measured after 24 days by spray method; format: functional; details: 576 h, read-out: GI
[20] = tested on: Brassica rapa subsp. oleifera; experiment: Pre-emergence herbicidal activity against Brassica rapa subsp. oleifera under greenhouse condition at 750 g /ha measured after 24 days by spray method; format: functional; details: 576 h, read-out: GI
Amaranthus retroflexus [21] = experiment: Post-emergence herbicidal activity against one-leaf stage Amaranthus retroflexus under greenhouse condition at 150 g /ha measured after 24 days by spray method; format: functional; details: 576 h, read-out: GI
[22] = tested on: Brassica rapa subsp. oleifera; experiment: Post-emergence herbicidal activity against one-leaf stage Brassica rapa subsp. oleifera under greenhouse condition at 30 g /ha measured after 24 days by spray method; format: functional; details: 576 h, read-out: GI
Digitaria [23] = experiment: Pre-emergence herbicidal activity against Digitaria adscendens under greenhouse condition at 750 g /ha measured after 24 days by spray method; format: functional; details: in Digitaria adscendens, 576 h, read-out: GI
Amaranthus retroflexus [24] = experiment: Post-emergence herbicidal activity against one-leaf stage Amaranthus retroflexus under greenhouse condition assessed as complete bleaching of leaves at 150 g /ha measured after 24 days by spray method; format: functional, organism-based
Spirodela polyrhiza [25] = experiment: Bleaching herbicidal activity in Spirodela polyrhiza fronds cultured in compound-containing in medium assessed as chlorophyll inhibition at 1 ug/ml after 7 days; format: functional; details: 168 h
Amaranthus retroflexus [26] = experiment: Post-emergence herbicidal activity against one-leaf stage Amaranthus retroflexus under greenhouse condition assessed as complete bleaching of leaves at 60 g /ha measured after 24 days by spray method; format: functional, organism-based
Amaranthus retroflexus [27] = experiment: Post-emergence herbicidal activity against one-leaf stage Amaranthus retroflexus under greenhouse condition assessed as complete bleaching of leaves at 300 g /ha measured after 24 days by spray method; format: functional, organism-based
Amaranthus retroflexus [28] = experiment: Post-emergence herbicidal activity against one-leaf stage Amaranthus retroflexus under greenhouse condition assessed as complete bleaching of leaves at 30 g /ha measured after 24 days by spray method; format: functional, organism-based
[29] = tested on: Brassica rapa subsp. oleifera; experiment: Post-emergence herbicidal activity against one-leaf stage Brassica rapa subsp. oleifera under greenhouse condition assessed as complete bleaching of leaves at 300 g /ha measured after 24 days by spray method; format: functional, organism-based
[30] = tested on: Brassica rapa subsp. oleifera; experiment: Post-emergence herbicidal activity against one-leaf stage Brassica rapa subsp. oleifera under greenhouse condition at 750 g /ha measured after 24 days by spray method; format: functional; details: 576 h, read-out: GI
[31] = tested on: Brassica rapa subsp. oleifera; experiment: Post-emergence herbicidal activity against one-leaf stage Brassica rapa subsp. oleifera under greenhouse condition at 15 g /ha measured after 24 days by spray method; format: functional; details: 576 h, read-out: GI
Amaranthus retroflexus [32] = experiment: Post-emergence herbicidal activity against one-leaf stage of Amaranthus retroflexus under greenhouse condition at 750 g /ha measured after 24 days by spray method; format: functional; details: 576 h, read-out: GI
Amaranthus retroflexus [33] = experiment: Post-emergence herbicidal activity against one-leaf stage Amaranthus retroflexus under greenhouse condition at 75 g /ha measured after 24 days by spray method; format: functional; details: 576 h, read-out: GI
[34] = tested on: Brassica rapa subsp. oleifera; experiment: Post-emergence herbicidal activity against one-leaf stage Brassica rapa subsp. oleifera under greenhouse condition at 75 g /ha measured after 24 days by spray method; format: functional; details: 576 h, read-out: GI
[35] = tested on: Brassica rapa subsp. oleifera; experiment: Post-emergence herbicidal activity against one-leaf stage Brassica rapa subsp. oleifera under greenhouse condition at 300 g /ha measured after 24 days by spray method; format: functional; details: 576 h, read-out: GI
Amaranthus retroflexus [36] = experiment: Post-emergence herbicidal activity against one-leaf stage Amaranthus retroflexus under greenhouse condition assessed as complete bleaching of leaves at 600 g /ha measured after 24 days by spray method; format: functional, organism-based
Digitaria [37] = experiment: Post-emergence herbicidal activity against one-leaf stage of Digitaria adscendens under greenhouse condition at 750 g /ha measured after 24 days by spray method; format: functional; details: in Digitaria adscendens, 576 h, read-out: GI
Amaranthus retroflexus [38] = experiment: Post-emergence herbicidal activity against one-leaf stage Amaranthus retroflexus under greenhouse condition at 60 g /ha measured after 24 days by spray method; format: functional; details: 576 h, read-out: GI
Amaranthus retroflexus [39] = experiment: Post-emergence herbicidal activity against one-leaf stage Amaranthus retroflexus under greenhouse condition assessed as complete bleaching of leaves at 75 g /ha measured after 24 days by spray method; format: functional, organism-based
[40] = tested on: Brassica rapa subsp. oleifera; experiment: Post-emergence herbicidal activity against one-leaf stage Brassica rapa subsp. oleifera under greenhouse condition at 600 g /ha measured after 24 days by spray method; format: functional; details: 576 h, read-out: GI
[41] = tested on: Brassica rapa subsp. oleifera; experiment: Post-emergence herbicidal activity against one-leaf stage Brassica rapa subsp. oleifera under greenhouse condition assessed as complete bleaching of leaves at 600 g /ha measured after 24 days by spray method; format: functional, organism-based
[42] = tested on: Brassica rapa subsp. oleifera; experiment: Post-emergence herbicidal activity against one-leaf stage Brassica rapa subsp. oleifera under greenhouse condition assessed as complete bleaching of leaves at 150 g /ha measured after 24 days by spray method; format: functional, organism-based

Structure (SMILES): Cc1cc(-c2cccc(C(F)(F)F)c2)c(Oc2ccc(Cl)c(Cl)c2)nn1
- inhibition of growth at 150 g/ha [1]: 100%
- Activity [2]: Active
- inhibition of growth at 300 g/ha (Amaranthus retroflexus [3]): 100%
- inhibition of growth at 30 g/ha (Amaranthus retroflexus [4]): 42%
- inhibition of growth at 60 g/ha [5]: 100%
- Activity [6]: Active
- Activity [7]: Active
- Activity [8]: Active
- inhibition of growth at 750 g/ha (Echinochloa crus-galli [9]): 19%
- inhibition of growth at 7.5 g/ha [10]: 58%
- inhibition of growth at 750 g/ha (Echinochloa crus-galli [11]): 87%
- inhibition of growth at 750 g/ha (Amaranthus retroflexus [12]): 0%
- inhibition of growth at 15 g/ha (Amaranthus retroflexus [13]): 34%
- inhibition at 10 µg/mL (Spirodela polyrhiza [14]): 96%
- Activity (Amaranthus retroflexus [15]): Active
- Activity (Amaranthus retroflexus [16]): Active
- inhibition of growth at 7.5 g/ha (Amaranthus retroflexus [17]): 32%
- Activity [18]: Active
- inhibition of growth at 600 g/ha (Amaranthus retroflexus [19]): 100%
- inhibition of growth at 750 g/ha [20]: 27%
- inhibition of growth at 150 g/ha (Amaranthus retroflexus [21]): 100%
- inhibition of growth at 30 g/ha [22]: 100%
- inhibition of growth at 750 g/ha (Digitaria [23]): 6%
- Activity (Amaranthus retroflexus [24]): Active
- inhibition at 1 µg/mL (Spirodela polyrhiza [25]): 93%
- Activity (Amaranthus retroflexus [26]): Active
- Activity (Amaranthus retroflexus [27]): Active
- Activity (Amaranthus retroflexus [28]): Active
- Activity [29]: Active
- inhibition of growth at 750 g/ha [30]: 100%
- inhibition of growth at 15 g/ha [31]: 89%
- inhibition of growth at 750 g/ha (Amaranthus retroflexus [32]): 100%
- inhibition of growth at 75 g/ha (Amaranthus retroflexus [33]): 85%
- inhibition of growth at 75 g/ha [34]: 100%
- inhibition of growth at 300 g/ha [35]: 100%
- Activity (Amaranthus retroflexus [36]): Active
- inhibition of growth at 750 g/ha (Digitaria [37]): 100%
- inhibition of growth at 60 g/ha (Amaranthus retroflexus [38]): 47%
- Activity (Amaranthus retroflexus [39]): Active
- inhibition of growth at 600 g/ha [40]: 100%
- Activity [41]: Active
- Activity [42]: Active
